Values of other authors as cited in paper PMC3222680 (PLoS ONE, 2011).

Tested on: α1 β GlyRs with cysteine mutations in the M2–M3 loop of the β subunit
Conditions: cysteine-substituted α1 β GlyRs (β subunit M2–M3 loop) ref 22; cited from earlier work

C[N+](C)(C)CCSS(C)(=O)=O [MTSET, 2-trimethylammoniumethylmethane thiosulfonate]
channel function in response to MTSET treatment: did not change
